{"source": "paper PMC8809408", "about": "(Frontiers in Pharmacology, 2022)", "data": [{"test_system": "pseudotyped viruses harboring glycoprotein of vesicular stomatitis virus (VSV)", "format": "cell-based", "values": [{"smiles": "CN(C)CCCC1(c2ccc(F)cc2)OCc2cc(C#N)ccc21", "note": "(stereo not shown) [Citalopram]", "luciferase activity (infection by VSV-G pseudotyped viruses)": "remained ineffective"}, {"smiles": "CN(C)CCCN1c2ccccc2CCc2ccc(Cl)cc21", "note": "[Clomipramine]", "luciferase activity (infection by VSV-G pseudotyped viruses)": "reduced the infection"}, {"smiles": "CNCCC(Oc1ccc(C(F)(F)F)cc1)c1ccccc1", "note": "(stereo not shown) [Fluoxetine]", "luciferase activity (infection by VSV-G pseudotyped viruses)": "reduced the infection"}, {"smiles": "OCCN1CCN(CCC=C2c3ccccc3Sc3ccc(C(F)(F)F)cc32)CC1", "note": "[Flupenthixol]", "luciferase activity (infection by VSV-G pseudotyped viruses)": "reduced the infection"}, {"smiles": "COCCCC/C(=N\\OCCN)c1ccc(C(F)(F)F)cc1", "note": "[Fluvoxamine]", "luciferase activity (infection by VSV-G pseudotyped viruses)": "remained ineffective"}, {"smiles": "Fc1ccc([C@@H]2CCNC[C@H]2COc2ccc3c(c2)OCO3)cc1", "note": "[Paroxetine]", "luciferase activity (infection by VSV-G pseudotyped viruses)": "remained ineffective"}, {"smiles": "CCOc1ccccc1OC(c1ccccc1)C1CNCCO1", "note": "(stereo not shown) [Reboxetine]", "luciferase activity (infection by VSV-G pseudotyped viruses)": "reduced the infection"}]}]}
